In patent US20240124510A1, “Cyclic Glycoaminoacid Derivatives” (TFCHEM, priority 2021, published 2024):
“And” between values parts separate entries of the source, which are not always exact repeats. Identical values can stand only once.

Legend:
Collagen I fibers = assay: Quantity of Collagen 1 fibers produced by preadipocytes in inflammatory condition (immunofluorescence); assay type: cell-based, human; settings: for Collagen I fibers quantity, Mean (%) / Collagen I fibers quantity, Values (%): inflammatory condition, normalized by cells number (Dapi); for Collagen I fibers quantity, Values (%): individual values; for Collagen I fibers quantity compared to the AcMC control condition fixed at 100%: preadipocytes
Procedure: (§1) Preadipocytes have been isolated from human female hypodermis (body mass index <30 kg/m2 and <45 years old). Preadipocytes have been cultured for 24 h in 100 μl of DMEM-10% Fetal Bovine Serum (FBS) in 96-well plates. Then cells were treated to induce their differentiation in a classical or an inflammatory environment for 13 days.
(§2) To induce the preadipocytes differentiation cells were incubated in a proadipogenic cocktail (PAC) including insulin, glucocorticoid, 3-isobutyl-1-methylxanthine (IBMX), and thiazolinedione in DMEM.
(§3) To induce a fibro-inflammatory environment, cells were treated with an activated human macrophage-conditioned medium (AcMC) prepared in RPMI medium. A treatment with Dexamethasone (DXM) at 100 nM was used as anti-inflammatory response control. At D0: preadipocytes have been treated in the following conditions: • “Undifferentiation”: DMEM+¼ RPMI medium • “Differentiation”: PAC+¼ RPMI medium • “AcMC” i.e. inflammatory condition: PAC+¼ AcMC • “AcMC+DXM”: PAC+[…] AcMC+anti-inflammatory DXM at 100 nM • “AcMc+compounds”: PAC+14 AcMC+compounds to be tested
One month after fixation of preadipocytes cultivated in pro-inflammatory environment, cells were incubated with 3% Bovine Serum Albumin (BSA) for 30 min in order to block the non-specific sites, then with primary antibody anti-collagen 1 (Novusbio, NB600-408) over-night. After washes with PBS, cells were incubated for 30 min with 3% BSA and then with the secondary antibodies (Goat anti-rabbit alexa-fluor 488, ThermoFisher, A11008) and DAPI (for nuclei staining) for 1 h. After several washes, the acquisition and the quantification were performed with a fluorescent video-microscope. Briefly, the quantification was based on the detection and quantification of cell nuclei stained with DAPI, and the detection of collagen 1 staining. Collagen 1 fibers were detected and measured for their length, thickness and intensity. A Collagen 1 fibers quantity was calculated (Quantity=length*thickness*fluorescence intensity) and normalized by cells number (DAPI staining).
Collagen I fibers (fibrillar collagen I) quantity was quantified and the data were normalized by cell number (DAPI staining, quantification of nuclei number). Data are represented in percentage of proinflammatory control conditions (AcMC condition).

IL-6 = assay: Extracellular secretion of IL-6 by preadipocytes in inflammatory condition (ELISA); assay type: cell-based, human; settings: for IL-6 secretion, Mean / IL-6 secretion, Values: normalized by cells number (DAPI); for IL-6 secretion, Values: individual values; for IL-6 secreted, normalized by cell number, in % of AcMC condition: preadipocytes/adipocytes
Procedure: as §1, §2, §3
(§4) All conditions have been performed in triplicate. The medium has been changed every 2 days for 13 days.
(§5) At D14: during the last 24 h of culture, the medium has been replaced by DMEM/F12 medium in all conditions, to collect cells' secretions.
(§6) After 13 days, the 24 h culture media of the different conditions have been collected at the end of the treatment period. The concentrations of IL-6, procollagen I and MCP1 have been evaluated by ELISA assays using specific kits (for IL-6: DY206, DuoSet ELISA, R&D Systems; for Procollagen I: DY6220-05, DuoSet ELISA, R&D Systems; for MCP1: DY279-05 DuoSet ELISA, R&D Systems) according to the manufacture's recommendations. Values have been normalized to the cell number determined by DAPI staining.
Quantity of IL-6 secreted in medium was measured and was normalized by cell number in each culture condition. Data are represented in percentage of proinflammatory control condition (AcMC condition).

Human dermal fibroblasts = assay: Cytotoxicity (LDH release) on dermal fibroblasts in classical condition; assay type: cell-based; settings: for Cytotoxicity (LDH release), Mean / Cytotoxicity (LDH release), Values: during 24 h after 11 days of culture, normalized by cell number; for Cytotoxicity (LDH release), Values: individual values
Procedure: Human dermal fibroblasts were isolated from skin tissue by dermis explants seeding in Petri dishes in DMEM-20% FBS for 3 weeks. Dermal fibroblasts were then seeded in 96-well plates and then incubated in different culture conditions described below.
Different culture conditions were realized in triplicate at least: • Positive control of cytotoxicity: cells in DMEM 1% FBS medium lysed by 0.2% triton at the end of the culture period • Control: cells in DMEM 1% FBS medium • Test: cells in DMEM 1% FBS medium added with test compound 6 and compound 44 of WO2015/140178.
Cytotoxicity was assessed by the measurement of the lactate dehydrogenase (LDH) released by damaged cells in the culture medium (using the kit CytoTox-One Non-Radioactive Cytotoxicity Assay, G1780, Promega). Cells were treated with 0.2% of triton at the end of the culture to determine the maximal toxicity response. […]
The results were normalized by cell number, determined by nuclei staining (with DAPI: 4′,6-Diamidino-2-Phenylindole, Dihydrochloride), and were represented in percentage of the lysis positive control. Compounds presenting a level of cytotoxicity below 20% compared to control were considered as non-toxic.
Quantity of LDH released by cells was normalized by cell number in each culture condition. Data are represented in percentage of the positive control.

procollagen I = assay: Extracellular secretion of procollagen I by preadipocytes in inflammatory condition (ELISA); assay type: cell-based, human; settings: for Procollagen I secretion, Mean / Procollagen I secretion, Values: normalized by cells number (DAPI); for Procollagen I secretion, Values: individual values; for Procollagen I secretion compared to the AcMC control condition fixed at 100%: preadipocytes
Procedure: as §1, §2, §3, §4, §5, §6
Extracellular secretions of procollagen I by preadipocytes in inflammatory condition Quantity of procollagen secreted in medium was measured and normalized by cell number in each culture condition. Data are represented in percentage of proinflammatory control conditions (AcMC condition).

With `N[C@H]1CCCN(CC(F)(F)[C@]2(O)O[C@H](CO)[C@H](O)[C@H](O)[C@H]2O)C1=O` [Compound 6] the “Collagen I fibers quantity, Mean (%)” value (Collagen I fibers; 1 mg/ml) was 154 % of AcMC condition, the “Collagen I fibers quantity, Values (%)” value (Collagen I fibers; 1 mg/ml) was 136.7 % of AcMC condition and 160.5 % of AcMC condition and 165.3 % of AcMC condition and the “Collagen I fibers quantity, Mean (%)” value (Collagen I fibers; 2 mg/ml) was 213 % of AcMC condition. For the same molecule, the “Collagen I fibers quantity, Values (%)” value (Collagen I fibers; 2 mg/ml) was 193.5 % of AcMC condition and 230.7 % of AcMC condition and 213.7 % of AcMC condition, the “Collagen I fibers quantity compared to the AcMC control condition fixed at 100%” value (Collagen I fibers; 1 mg/ml) was 154% and the “Collagen I fibers quantity compared to the AcMC control condition fixed at 100%” value (Collagen I fibers; 2 mg/ml) was 213%. For the same molecule, the “IL-6 secretion, Mean” value (IL-6; AcMC + 1 mg/ml) was 84.0 % of AcMC condition, the “IL-6 secretion, Values” (IL-6; AcMC + 1 mg/ml) was 66.1 % of AcMC condition and 95.1 % of AcMC condition and 90.8 % of AcMC condition and the “IL-6 secretion, Mean” value (IL-6; AcMC + 2 mg/ml) was 28.1 % of AcMC condition. For the same molecule, the “IL-6 secretion, Values” (IL-6; AcMC + 2 mg/ml) was 25.5 % of AcMC condition and 26.8 % of AcMC condition and 31.9 % of AcMC condition, the “IL-6 secreted, normalized by cell number, in % of AcMC condition” value (IL-6; 1 mg/ml) was 84% and the “IL-6 secreted, normalized by cell number, in % of AcMC condition” value (IL-6; 2 mg/ml) was 28.1%. The “IL-6 secreted, normalized by cell number, in % of AcMC condition” value (IL-6; 2 mg/ml, listed as compound 6) was 28.1% and 28%, the “Cytotoxicity (LDH release), Mean” value (Human dermal fibroblasts; 0.1 mg/ml) was 6.7 percentage of positive control and the “Cytotoxicity (LDH release), Values” (Human dermal fibroblasts; 0.1 mg/ml) was 5.9 percentage of positive control and 4.8 percentage of positive control and 6.5 percentage of positive control and 9.8 percentage of positive control. For the same molecule, the “Cytotoxicity (LDH release), Mean” value (Human dermal fibroblasts; 0.5 mg/ml) was 5.6 percentage of positive control, the “Cytotoxicity (LDH release), Values” (Human dermal fibroblasts; 0.5 mg/ml) was 7.1 percentage of positive control and 6.6 percentage of positive control and 3.1 percentage of positive control and 5.7 percentage of positive control and the “Toxicity on dermal fibroblasts” value (Human dermal fibroblasts; 2 mg/ml, 0.5 mg/ml and 0.1 mg/ml) was “No toxicity”. The “Cytotoxicity (LDH release), Mean” value (Human dermal fibroblasts; 2 mg/ml) was 5.1 percentage of positive control, the “Cytotoxicity (LDH release), Values” (Human dermal fibroblasts; 2 mg/ml) was 4.2 percentage of positive control and 5.1 percentage of positive control and 5.3 percentage of positive control and 6.0 percentage of positive control and the “Protective effect on dermal fibroblasts under classical condition” value (Human dermal fibroblasts; all concentrations) was “strong protective effect”. The “Procollagen I secretion, Mean” value (procollagen I; AcMC + 1 mg/ml) was 49.9 % of AcMC condition, the “Procollagen I secretion, Values” (procollagen I; AcMC + 1 mg/ml) was 39.3 % of AcMC condition and 57.7 % of AcMC condition and 52.7 % of AcMC condition and the “Procollagen I secretion, Mean” value (procollagen I; AcMC + 2 mg/ml) was 46.2 % of AcMC condition. For the same molecule, the “Procollagen I secretion, Values” (procollagen I; AcMC + 2 mg/ml) was 47.0 % of AcMC condition and 40.2 % of AcMC condition and 51.2 % of AcMC condition, the “Procollagen I secretion compared to the AcMC control condition fixed at 100%” value (procollagen I; 1 mg/ml) was 49.9% and the “Procollagen I secretion compared to the AcMC control condition fixed at 100%” value (procollagen I; 2 mg/ml) was 46.2%.
